According to patent US11365186B2, “Substituted benzimidazoles, their preparation and their use as pharmaceuticals” (Epigenetix, Inc., priority 2015, dated 2022):

Test system: human C-Myc transcription in MV-4-11 cells
Assay: Transcription of human C-Myc in human leukemic MV-4-11 cells (QuantiGene 2.0)
Format: cell-based
Settings: inhibition of C-Myc mRNA transcription, 4 hours treatment, read-out: IC50 MV-4-11 Cell
Procedure: b) Transcription of Human C-Myc in Human Leukemic MV-4-11 Cells:
The effect of compounds on transcription of human C-Myc gene is monitored in human B-myelomonocytic leukemia cell line MV-4-11 (from American Type Culture Collection (ATCC), Manassas, Va., USA) using QuantiGene 2.0 assay kit (Affymetrix, Santa Clara, Calif., USA).
Typically, 8,000 MV-4-11 cells are plated in sterile 96-well plates (Costar #3598 from Fisher Scientific Canada, Ottawa, Ontario, Canada) in Iscove's medium supplemented with 10% fetal bovine serum, glutamine (2 mM), and penicillin (100 I.U.) and streptomycin (100 μg/mL) (all from Wisent Inc., St. Bruno, Quebec, Canada). Compounds are dissolved in DMSO at 30 mM. A series of 1:3 dilutions are first made in DMSO, and further […] dilutions are made in serum-containing cell culture media. The final concentration of DMSO is 0.1% in cell culture media. After cells are treated with various concentrations of test compound for 4 hours, cells are lysed using Quantigene 2.0 sample processing kit (#QS0100). C-Myc mRNA is detected using a QuantiGene 2.0 assay kit (#QS0009) with gene-specific probe to human C-Myc (#SA-50182) following the manufacturer's recommendations. Luminescence signals are read on Flexstation II microplate reader (Molecular Devices, Sunnyvale, Calif., USA).

COC1CC(c2nc3ccc(-c4cc(C)c(=O)n(C)c4)cc3n2CCOCC(F)(F)F)C1 (stereo not shown) [Compound 63, 5-[2-(3-methoxycyclobutyl)-1-(2-(2,2,2-trifluoroethoxy)ethyl)-1H-benzo[d]imidazol-6-yl]-1,3-dimethylpyridin-2(1H)-one]
IC50: 0.017 µM
